23 molecules from US7541368B2, “Pyrazoles as inhibitors of tumor necrosis factor” (Aventis Pharmaceuticals Inc., priority 2003, dated 2009) can be followed below.

Structures are written as SMILES.

Assay [1] has as its system TNF-alpha release in THP-1 cells. In words: LPS-induced TNF-alpha release in THP-1 cells. The class given is cell-based. Conditions: Homo sapiens, THP-1, LPS-stimulated THP-1 cells; read-out: 50% inhibition in the LPS-induced TNF-alpha release in THP-1 cells assay at concentrations within the range. The essentials: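 Undifferentiated THP-1 monocytes (1×10^6 cells/ml, 1% FCS) preincubated 1 h at 37° C with compound (1×10^−9 to 1×10^−6 M, 0.3% DMSO), then stimulated with LPS (20 μg/ml) for 18 h. Supernatant TNF-alpha measured by sandwich ELISA (TMB read-out), interpolated from a log/log standard curve (0.125-16 ng/ml).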

For assay [2], the target named is T1, Inactive N-terminal His6 tagged murine P38 (Mus musculus, UniProt P47811).
T1 construct: His6 (N); made in house
T1 sequence (P47811 whole entry): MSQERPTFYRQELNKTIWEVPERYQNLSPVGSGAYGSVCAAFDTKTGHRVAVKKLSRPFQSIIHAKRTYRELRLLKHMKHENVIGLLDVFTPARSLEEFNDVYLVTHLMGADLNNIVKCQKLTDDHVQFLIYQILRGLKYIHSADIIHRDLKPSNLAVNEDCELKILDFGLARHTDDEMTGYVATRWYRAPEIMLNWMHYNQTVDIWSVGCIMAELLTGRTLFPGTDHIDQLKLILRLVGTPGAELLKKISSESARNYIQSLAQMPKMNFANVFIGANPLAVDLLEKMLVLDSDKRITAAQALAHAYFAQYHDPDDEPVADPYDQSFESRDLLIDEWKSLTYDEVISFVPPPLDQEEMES
In words: p38 cascade assay (HTRF; inactive p38 activated by MKK-6, ATF-2 phosphorylation). It counts as biochemical. Conditions: inactive p38 preincubated with compound, then MKK-6, ATF-2, ATP; read-out: 50% inhibition in the p38 cascade assay at concentrations within the range. As for the experimental part: The homogeneous time resolved fluorescence method (HTRF) assay measured the phosphorylation of human activating transcription factor (ATF)-2 protein by P38 following activation by MKK-6 and was run in A384 well plate format. […] MBP-tagged mouse MKK-6 (final concentration 50 nM), GST-tagged ATF-2 (fmal concentration 200 nM) and ATP (final concentration 50 μM) were then added and the incubation continued for 90 min. p38, MKK-6 and ATF-2 were prepared in the Protein Production Group, Aventis Pharmaceuticals. XL665 labeled anti-GST antibody (Cis Bio International) and cryptate labeled anti-pbospho-ATF2 antibody (Cis Bio International) were then added to generate the specific signal proportional to the phosphorylation of the substrate. The close proximity of XL665 labeled anti-GST antibody/phosphorylated GST-ATF2 complex and the cryptate labeled anti-phospho-ATF2 antibody results in a fluorescence transfer from cryptate to XL665. The resulting fluorescence signal was than read on a LJL Acquest set at multi-method mode using a fluorescence filter set (E=360 nm, Em=615/665 nm) with UV dichroic mirror (Integration time: 300000 μs). The results are reported as IC50 values. Compounds were tested over the concentration range of 3×10^−10M to 3×10^−5M.

For `Cc1ccc(-n2nc(C(C)(C)C)cc2NC(=O)Nc2cccc(CC3CCN(C(=O)Cc4ccccc4F)CC3)c2)cc1` [Compound A43, 1-(5-tert-Butyl-2-p-tolyl-2H-pyrazol-3-yl)-3-(3-{1-[2-(2-fluoro-phenyl)-acetyl]-piperidin-4-ylmethyl}-phenyl)-urea], the IC50 in assay [1] lay within 10 to 500 nM; in assay [2], 10 to 100 nM.
Take `Cc1ccc(-n2nc(C(C)(C)C)cc2NC(=O)Nc2cccc(CC3CCN(C(=O)c4cccnc4C)CC3)c2)cc1` [Compound A59, 1-(5-tert-Butyl-2-p-tolyl-2H-pyrazol-3-yl)-3-{3-[1-(2-methyl-pyridine-3-carbonyl)-piperidin-4-ylmethyl]-phenyl}-urea]: the IC50 in assay [1] was in the range of 10 to 500 nM; in assay [2] it was 10 to 100 nM.
In the same order, the values of `CC(=O)Nc1cccc(C(=O)N2CCC(Cc3cccc(NC(=O)Nc4cc(C(C)(C)C)nn4-c4ccc(C)cc4)c3)CC2)c1` [Compound A88, N-[3-(4-{3-[3-(5-tert-Butyl-2-p-tolyl-2H-pyrazol-3-yl)-ureido]-benzyl}-piperidine-1-carbonyl)-phenyl]-acetamide] are 10 to 500 nM and 10 to 100 nM.
Consider `COc1ccc(C(=O)N2CCC(Cc3cccc(NC(=O)Nc4cc(C(C)(C)C)nn4-c4ccc(C)cc4)c3)CC2)c(C)c1` [Compound A120, 1-(5-tert-Butyl-2-p-tolyl-2H-pyrazol-3-yl)-3-{3-[1-(4-methoxy-2-methyl-benzoyl)-piperidin-4-ylmethyl]-phenyl}-urea], for which the IC50 fell in the range of 10 to 500 nM in assay [1] and 10 to 100 nM in assay [2].
The matching figures for `COc1cscc1C(=O)N1CCC(Cc2cccc(NC(=O)Nc3cc(C(C)(C)C)nn3-c3ccc(C)cc3)c2)CC1` [Compound A123, 1-(5-tert-Butyl-2-p-tolyl-2H-pyrazol-3-yl)-3-{3-[1-(4-methoxy-thiophene-3-carbonyl)-piperidin-4-ylmethyl]-phenyl}-urea]: 10 to 500 nM and 10 to 100 nM.
The matching figures for `Cc1ccc(-n2nc(C(C)(C)C)cc2NC(=O)Nc2cccc(CC3CCN(C(=O)c4ccc(C)s4)CC3)c2)cc1` [Compound A137, 1-(5-tert-Butyl-2-p-tolyl-2H-pyrazol-3-yl)-3-{3-[1-(5-methyl-thiophene-2-carbonyl)-piperidin-4-ylmethyl]-phenyl}-urea]: 10 to 500 nM and 10 to 100 nM.
In the same order, the values of `Cc1ccc(-n2nc(C(C)(C)C)cc2NC(=O)Nc2cccc(CC3CCN(C(=O)CNC(=O)c4ccccc4)CC3)c2)cc1` [Compound A163, N-[2-(4-{3-[3-(5-tert-butyl-2-p-tolyl-2H-pyrazol-3-yl)-ureido]-benzyl}-piperidin-1-yl)-2-oxo-ethyl]-benzamide] are 10 to 500 nM and 10 to 100 nM.
Take `Cc1ccc(-n2nc(C(C)(C)C)cc2NC(=O)Nc2cccc(CC3CCN(C(=O)c4ccncc4)CC3)c2)cc1` [Compound A170, 1-(5-tert-Butyl-2-p-tolyl-2H-pyrazol-3-yl)-3-{3-[1-(pyridine-4-carbonyl)-piperidin-4-ylmethyl]-phenyl}-urea]: the IC50 lay in the range of 10 to 500 nM in assay [1] and 10 to 100 nM in assay [2].
For the molecule `COCC(=O)N1CCC(Cc2cccc(NC(=O)Nc3cc(C(C)(C)C)nn3-c3ccc(C)cc3)c2)CC1` [Compound A173, 1-(5-tert-Butyl-2-p-tolyl-2H-pyrazol-3-yl)-3-{3-[1-(2-methoxy-acetyl)-piperidin-4-ylmethyl]-phenyl}-urea], the figures for the IC50 in assay [1] and in assay [2] were 10 to 500 nM and 10 to 100 nM, respectively.
In the same order, the values of `CC(=O)NCC(=O)N1CCC(Cc2cccc(NC(=O)Nc3cc(C(C)(C)C)nn3-c3ccc(C)cc3)c2)CC1` [Compound A179, N-[2-(4-{3-[3-(5-tert-Butyl-2-p-tolyl-2H-pyrazol-3-yl)-ureido]-benzyl}-piperidin-1-yl)-2-oxo-ethyl]-acetamide] are 10 to 500 nM and 10 to 100 nM.
The matching figures for `Cc1ccc(-n2nc(C(C)(C)C)cc2NC(=O)Nc2cccc(CC3CCN(C(=O)c4cccnc4)CC3)c2)cc1` [Compound A181, 1-(5-tert-Butyl-2-p-tolyl-2H-pyrazol-3-yl)-3-{3-[1-(pyridine-3-carbonyl)-piperidin-4-ylmethyl]-phenyl}-urea]: 10 to 500 nM and 10 to 100 nM.
In the same order, the values of `Cc1ccc(-n2nc(C(C)(C)C)cc2NC(=O)Nc2ccc(CC3CCN(C(=O)Cc4ccc(F)cc4F)CC3)cc2)cc1` [Compound A217, 1-(5-tert-Butyl-2-p-tolyl-2H-pyrazol-3-yl)-3-(4-{1-[2-(2,4-difluoro-phenyl)-acetyl]-piperidin-4-ylmethyl}-phenyl)-urea] are 10 to 500 nM and 10 to 100 nM.
Turning to `Cc1ccc(-n2nc(C(C)(C)C)cc2NC(=O)Nc2ccc(CC3CCN(C(=O)c4sc(C)nc4C)CC3)cc2)cc1` [Compound A219, 1-(5-tert-Butyl-2-p-tolyl-2H-pyrazol-3-yl)-3-{4-[1-(2,4-dimethyl-thiazole-5-carbonyl)-piperidin-4-ylmethyl]-phenyl}-urea], the IC50 in assay [1] fell in the range of 10 to 500 nM; in assay [2], 10 to 100 nM.
The matching figures for `COc1ccc(OC)c(C(=O)N2CCC(Cc3ccc(NC(=O)Nc4cc(C(C)(C)C)nn4-c4ccc(C)cc4)cc3)CC2)c1` [Compound A220, 1-(5-tert-Butyl-2-p-tolyl-2H-pyrazol-3-yl)-3-{4-[1-(2,5-dimethoxy-benzoyl)-piperidin-4-ylmethyl]-phenyl}-urea]: 10 to 500 nM and 10 to 100 nM.
The matching figures for `Cc1ccc(-n2nc(C(C)(C)C)cc2NC(=O)Nc2ccc(CC3CCN(C(=O)c4cnccn4)CC3)cc2)cc1` [Compound A256, 1-(5-tert-Butyl-2-p-tolyl-2H-pyrazol-3-yl)-3-{4-[1-(pyrazine-2-carbonyl)-piperidin-4-ylmethyl]-phenyl}-urea]: 10 to 500 nM and 10 to 100 nM.
Turning to `Cc1ccc(-n2nc(C(C)(C)C)cc2NC(=O)Nc2ccc(CC3CCN(C(=O)c4nccnc4N)CC3)cc2)cc1` [Compound A283, 1-{4-[1-(3-Amino-pyrazine-2-carbonyl)-piperidin-4-ylmethyl]-phenyl}-3-(5-tert-butyl-2-p-tolyl-2H-pyrazol-3-yl)-urea], the IC50 in assay [1] lay in the range of 10 to 500 nM; in assay [2], 10 to 100 nM.
In the same order, the values of `Cc1ccc(-n2nc(C(C)(C)C)cc2NC(=O)Nc2ccc(CC3CCN(C(=O)c4occc4C)CC3)cc2)cc1` [Compound A289, 1-(5-tert-Butyl-2-p-tolyl-2H-pyrazol-3-yl)-3-{4-[1-(3-methyl-furan-2-carbonyl)-piperidin-4-ylmethyl]-phenyl}-urea] are 10 to 500 nM and 10 to 100 nM.
In the same order, the values of `Cc1ccc(-n2nc(C(C)(C)C)cc2NC(=O)Nc2ccc(CC3CCN(C(=O)c4oc5ccccc5c4C)CC3)cc2)cc1` [Compound A290, 1-(5-tert-Butyl-2-p-tolyl-2H-pyrazol-3-yl)-3-{4-[1-(3-methyl-benzofuran-2-carbonyl)-piperidin-4-ylmethyl]-phenyl}-urea] are 10 to 500 nM and 10 to 100 nM.
The matching figures for `Cc1ccc(-n2nc(C(C)(C)C)cc2NC(=O)Nc2ccc(CC3CCN(C(=O)CCOc4ccccc4)CC3)cc2)cc1` [Compound A292, 1-(5-tert-Butyl-2-p-tolyl-2H-pyrazol-3-yl)-3-{4-[1-(3-phenoxy-propionyl)-piperidin-4-ylmethyl]-phenyl}-urea]: 10 to 500 nM and 10 to 100 nM.
As for `Cc1ccc(-n2nc(C(C)(C)C)cc2NC(=O)Nc2ccc(CC3CCN(C(=O)c4ccsc4)CC3)cc2)cc1` [Compound A294, 1-(5-tert-Butyl-2-p-tolyl-2H-pyrazol-3-yl)-3-{4-[1-(thiophene-3-carbonyl)-piperidin-4-ylmethyl]-phenyl}-urea], the IC50 in assay [1] lay in the range of 10 to 500 nM; in assay [2] it was 10 to 100 nM.
In the same order, the values of `Cc1ccc(-n2nc(C(C)(C)C)cc2NC(=O)Nc2ccc(CC3CCN(C(=O)c4cnc(O)c(Cl)c4)CC3)cc2)cc1` [Compound A326, 1-(5-tert-Butyl-2-p-tolyl-2H-pyrazol-3-yl)-3-{4-[1-(5-chloro-6-hydroxy-pyridine-3-carbonyl)-piperidin-4-ylmethyl]-phenyl}-urea] are 10 to 500 nM and 10 to 100 nM.
On to `Cc1ccc(-n2nc(C(C)(C)C)cc2NC(=O)Nc2ccc(CC3CCN(C(=O)c4cccc(C)n4)CC3)cc2)cc1` [Compound A334, 1-(5-tert-Butyl-2-p-tolyl-2H-pyrazol-3-yl)-3-{4-[1-(6-methyl-pyridine-2-carbonyl)-piperidin-4-ylmethyl]-phenyl}-urea], for which the IC50 lay in the range of 10 to 500 nM in assay [1] and 10 to 100 nM in assay [2].
In the same order, the values of `CC(=O)OCc1ccc(C(=O)N2CCC(Cc3ccc(NC(=O)Nc4cc(C(C)(C)C)nn4-c4ccc(C)cc4)cc3)CC2)cc1` [Compound A336, Acetic acid 4-(4-{4-[3-(5-tert-butyl-2-p-tolyl-2H-pyrazol-3-yl)-ureido]-benzyl}-piperidin-1-carbonyl)-benzyl ester] are 10 to 500 nM and 10 to 100 nM.
